Laboratory results: patent US6187559A, “Phospholipase D gene” (Novartis AG, priority 1998, dated 2001)

Tested on: PLD (phospholipase D)
Assay: Assay for PLD activity (release of 3H choline from radiolabeled PC)
Format: biochemical
Settings: substrate [methyl-3H] choline dipalmitoyl PC; PLDT buffer (20 mM Tris-HCl pH 7.0, 1.0 mM EDTA, 0.05% Triton X-100), 37° C.
Procedure: The PLD assay measured the release of ^3 H choline from radiolabeled PC (Steed et al. (1996) Biochemistry 35:5229-5237). Product was separated from substrate by partitioning into water from a chloroform:methanol extraction. ^3 H PC substrate was prepared by drying stock (in methanol) with argon and re-dissolving into minimal volumes of methanol (2-10 μl). After dilution with a buffer of 20 mM Tris-HCl, pH 7.0, 1.0 mM EDTA and 0.05% Triton X-100 (PLDT buffer) to a 5× concentration, the substrate was sonicated for 30 sec and used immediately. The assay was performed with 1.0 μM [methyl-^3 H] choline L-a-PC dipalmitoyl phosphatidylcholine (0.1 μCi/assay) and enzyme with PLDT buffer added to a final volume of 50 μl using polypropylene tubes. Since the estimated Km is greater than 1 μM, PC is limiting in this assay. Unfortunately, the solubility constraints of the lipid substrate preclude the use of higher PC concentrations. […] The radioactivity in the aqueous phase (200 μl) was counted in either a Beckman LS 3801 (Beckman Instruments Columbia Md.) or Wallac 1450 Microbeta Plus (Wallac Inc., Gaithersburg Md.) liquid scintillation counter after the addition of scintillant. […] The material was assayed using transphosphatidylation to butanol and ethanol to verify that PLD activity is being measured. […]

With CCCCCCCCCCCCCCCC(=O)OC[C@H](COP(=O)([O-])OCC[N+](C)(C)C)OC(=O)CCCCCCCCCCCCCCC [PC, dipalmitoyl phosphatidylcholine] the “estimated Km” value was “greater than 1 μM”.
